Measured values: patent US8486991B2, “Enantiomerically pure phosphoindoles as HIV inhibitors” (Idenix Pharmaceuticals, Inc., priority 2006, dated 2013)
“Also recorded” adds a separate entry of the source. Where two headings read alike, the source gives them in different places.

Key:
[1] = tested on: CYP3A4 (activation of PXR in DPX2 cells); assay: CYP3A4 induction screen in DPX2 cells; format: cell-based, human; details: extent compared with rifampicine, mifepristone, androstanol
Description: (§1) The potential for in vitro induction of CYP3A4 was screened in DPX2 cells. The DPX2 cell line is a derivative of a human hepatocellular carcinoma cell line (HepG2) transformed with the human pregnane x receptor (PXR) and a reporter gene vector containing the enhancer region of CYP3A4. The potential for in vitro induction of CYP1A2 was screened in CYP1A2-DRE cells. The CYP1A2-DRE cell line is a stably transformed HepG2 cells with dioxin response elements (DRE) and reporter gene containing CYP1A2 promoter elements. The extent of CYP3A4 induction was determined by comparing the activation of PXR obtained with test article to that obtained with rifampicine (potent inducer), mifepristone (moderate inducer) and androstanol (weak inducer). The extent of CYP1A2 induction was determined by comparing the activation of the aryl hydrocarbon receptor (AhR) obtained with test article to that obtained with TCDD (potent inducer), omeprazole (moderate inducer), and 2-acetylaminofluorene (weak inducer).

CYP1A2 = target: T1, CYP1A2 (Homo sapiens, UniProt P05177); assay: Human liver microsomal CYP450 inhibition, CYP1A2; details: for IC50, CYP1A2: human liver microsomes
T1 sequence (P05177 1-516): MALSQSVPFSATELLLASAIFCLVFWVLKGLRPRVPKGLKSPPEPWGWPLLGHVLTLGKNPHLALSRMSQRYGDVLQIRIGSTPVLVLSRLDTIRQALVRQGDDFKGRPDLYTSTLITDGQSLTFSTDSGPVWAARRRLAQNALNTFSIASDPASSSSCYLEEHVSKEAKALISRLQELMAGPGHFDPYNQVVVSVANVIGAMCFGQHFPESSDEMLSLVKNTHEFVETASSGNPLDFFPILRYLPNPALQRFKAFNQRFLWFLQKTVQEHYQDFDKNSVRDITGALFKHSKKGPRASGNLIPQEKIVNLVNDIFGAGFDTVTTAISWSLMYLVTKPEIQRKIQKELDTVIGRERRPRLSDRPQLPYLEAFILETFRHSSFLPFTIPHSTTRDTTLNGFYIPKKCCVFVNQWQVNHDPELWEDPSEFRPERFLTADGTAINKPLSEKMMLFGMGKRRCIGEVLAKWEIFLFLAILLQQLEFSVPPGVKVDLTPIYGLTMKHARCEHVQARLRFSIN
Procedure: In addition, the type of inhibition was also evaluated.
Enzyme kinetic studies of cytochrome P450 isozyme inhibition were conducted using human liver microsomes.

[2] = tested on: CYP1A2 (activation of AhR in CYP1A2-DRE cells); assay: CYP1A2 induction screen in CYP1A2-DRE cells; format: cell-based, human; details: extent compared with TCDD, omeprazole, 2-acetylaminofluorene
Description: as §1

[3] = In vivo pharmacokinetics, rats; design: species or system rat; details: plasma
Procedure: (§2) All animals received a single oral or intravenous dose of compound in either polyethylene glycol 400 (PEG400) or a mixture of 10% ethanol (EtOH), 10% dimethylacetamine (DMA) and 80% PEG400 at the indicated dose level. Plasma concentration data were acquired using sensitive and specific LC-MS/MS methods. Pharmacokinetic data from the toxicity study included aspects of gender differences, variability and exposure.
(§3) Blood samples (1.5-2.5 mL) were collected in heparinized tubes at 0 (pre-dose), 5 (IV only), 10, 20, 30 min, 1, 2, 4, 6, 8, 12 (PO only) and 24 hr after dosing. Plasma was separated and stored at −70° C. until analysis.
(§4) Concentrations of unlabeled compound I and compound III within plasma samples and excreta from rat, dog and monkey PK studies were identified through high performance liquid chromatographic (HPLC) methods that incorporated tandem mass spectrometric detection (LC-MS/MS).
(§5) The absolute oral bioavailability was determined in pharmacokinetic by comparison of AUC values of parent compound following single intravenous and oral doses of in rats (compound III only), dogs and monkeys.

[4] = In vivo pharmacokinetics, monkeys; design: species or system monkey; details: for bioavailability: read-out: BA (absolute oral bioavailability); for concentration at 24 h: 5 mg/kg oral dose, read-out: plasma concentrations at 24 hours post-dose
Procedure: as §2, §3, §4, §5

[5] = Compound depletion in hepatocytes, monkey; format: in vitro ADME; details: up to 2 hours, read-out: t½, Compound Depletion in Hepatocytes, Monkey
Procedure: Fresh hepatocytes were plated onto collagen-coated plates and exposed to test compounds at 1 μM for up to 2 hours. Tissue culture medium was assayed for compound depletion by LC/MS detection. Values in Table 23 represent independent experiments from 5 to 7 donors.

[6] = tested on: stimulated human primary blood mononuclear cells (PBMC); assay: in vitro; details: 3 days
Procedure: Cell viability was determined via MTT staining.

[7] = tested on: HIV-1 RT K103N mutant enzyme; format: biochemical; details: Table 2; mutant vs wild-type
Description: In Vitro Antiviral Activity Against Additional Mutant HIV RT Enzymes

Structure (SMILES): CO[P@](=O)(c1cc(C)cc(/C=C/C#N)c1)c1c(C(N)=O)[nH]c2ccc(Cl)cc12 [Compound III, (2-Carbamoyl-5-chloro-1H-indol-3-yl)-[3-((E)-2-cyano-vinyl)-5-methyl-phenyl]-(R)-phosphinic acid methyl ester]
- Induction, DPX2 (CYP3A4) [1]: moderate inducers; also recorded: Moderate (n = 2)
- IC50 (CYP1A2): > 20 µM
- IC50, CYP1A2 (CYP1A2): not observed
- Induction, CYP1A2-DRE (CYP1A2) [2]: moderate inducers; also recorded: Not inducer (n = 1)
- Tmax ([3]; male, Rat, 10 mg/kg PO-Fasted, 3M, mean): 0.4 h
- bioavailability ([3]; male, Rat, 10 mg/kg PO-Fasted, 3M, IV 2 mg/kg, read-out: BA (absolute oral bioavailability)): 38%
- bioavailability ([3]; rat, po, text b979, (5 mg/kg), read-out: oral bioavailability in rats, exploratory PK studies): 38%
- Tmax ([4]; female, monkey, plasma, po, 5 mg/kg, 5 mg/kg PO-Fed, 3F, median): 2 h
- bioavailability ([4]; female, plasma, Monkey, 5 mg/kg PO-Fed, 3F (females)): 76%
- Tmax ([4]; male, monkey, plasma, po, 5 mg/kg, 5 mg/kg PO-Fed, 3M, median): 2 h
- Tmax ([4]; male, monkey, plasma, po, 5 mg/kg, 5 mg/kg PO-Fed, males (3M or 2M), mean): 3 h
- Tmax ([4]; male, monkey, plasma, po, 20 mg/kg, 20 mg/kg PO-Fed, 2M, mean): 2.5 h
- bioavailability ([4]; male, plasma, Monkey, 5 mg/kg PO-Fed, 3M (males)): 42%
- bioavailability ([4]; male, plasma, Monkey, 20 mg/kg PO-Fed, 2M): 61%
- concentration at 24 h ([4]; plasma, monkey): 12 ng/mL
- half-life at 1 μM ([5]; fresh hepatocytes plated on collagen-coated plates): 0.867 ± 0.4 h

Structure (SMILES): CO[P@](=O)(c1cc(C)cc(/C=C/C#N)c1)c1c(C(N)=O)[nH]c2ccc(Cl)c(F)c12 [Compound I, (2-Carbamoyl-5-chloro-4-fluoro-1H-indol-3-yl)-[3-((E)-2-cyano-vinyl)-5-methyl-phenyl]-(R)-phosphinic acid methyl ester]
- SI values from cytotoxicity and activity data in PBMC [6]: > 100,000
- Induction, DPX2 (CYP3A4) [1]: moderate inducers; also recorded: Moderate (n = 2)
- IC50 (CYP1A2): > 20 µM
- IC50, CYP1A2 (CYP1A2): not observed
- Fold Change, K103N [7]: 3.2 ± 3.5 fold
- bioavailability in males based on AUC values, excluding one animal ([4]; Monkey, 5 mg/kg oral): 75%
- Tmax ([4]; female, monkey, in vivo, po, 5 mg/kg, 5 mg/kg PO-Fed, 3F, median): 4 h
- bioavailability ([4]; female, monkey, in vivo, po, 5 mg/kg, Monkey, 5 mg/kg PO-Fed, 3F (females)): 61%
- concentration at 24 h ([4]; in vivo, monkey): 17.9 ng/mL
- Tmax ([4]; male, monkey, in vivo, po, 5 mg/kg, 5 mg/kg PO-Fed, 3M, median): 4 h
- Tmax ([4]; male, monkey, in vivo, po, 5 mg/kg, 5 mg/kg PO-Fed, males (3M or 2M), mean): 2.7 h
- bioavailability ([4]; male, monkey, in vivo, po, 5 mg/kg, Monkey, 5 mg/kg PO-Fed, 3M (males)): 54%
- bioavailability ([4]; male, monkey, in vivo, po, 5 mg/kg, Monkey, 5 mg/kg PO-Fed, males (3M or 2M), exploratory study): 58%
- half-life at 1 μM ([5]; hepatocytes): 1.05 ± 0.667 h
